Source: ChEMBL document CHEMBL6120970, “Discovery and Functional Characterization of a Potent, Selective, and Metabolically Stable PROTAC of the Protein Kinases DYRK1A and DYRK1B” (J Med Chem, 2024)
The source made the active and inactive calls. The rule behind the calls is not given here.

Tests used:
[1] = target: T1, Protein cereblon/Dual specificity tyrosine-phosphorylation-regulated kinase 1B (Homo sapiens) (UniProt Q9Y463+Q96SW2); assay: PROTAC activity at CRBN/DYRK1B in Flp-In-T-REx-293 cells overexpressing GFP-DYRK1B assessed as half life at 1 uM measured upto 6 hrs by fluorescence based phase contrast microscopy analysis; assay type: cell-based
[2] = target: T1, Protein cereblon/Dual specificity tyrosine-phosphorylation-regulated kinase 1B (Homo sapiens); assay: PROTAC activity at CRBN/DYRK1B in HEK293 cells assessed as induction of degradation of DYRK1B at 100 nM pretreated with leucettine-41 followed by compound addition and incubated for 8 hrs; assay type: cell-based
[3] = target: T2, Protein cereblon/Dual specificity tyrosine-phosphorylation-regulated kinase 1A (Homo sapiens, UniProt Q13627+Q96SW2); assay: PROTAC activity at CRBN/DYRK1A in HEK293 cells assessed as induction of degradation of DYRK1A at 1 to 10000 nM incubated for 24 hrs in presence of CaNDY; assay type: cell-based; conditions: dose 1-10000 nM
[4] = target: T2, Protein cereblon/Dual specificity tyrosine-phosphorylation-regulated kinase 1A; assay: PROTAC activity at CRBN/DYRK1A in human OVCAR-3 cells assessed as induction of degradation of DYRK1A at 100 nM incubated for 8 hrs; assay type: cell-based
[5] = target: T2, Protein cereblon/Dual specificity tyrosine-phosphorylation-regulated kinase 1A; assay: PROTAC activity at CRBN/DYRK1A in HEK293 cells assessed as induction of degradation of DYRK1A at 100 nM pretreated with bortezomib followed by compound addition and incubated for 8 hrs; assay type: cell-based
[6] = Half life in mouse at 10 mg/kg, po administered as single dose; assay type: ADME, organism-based; conditions: in vivo
[7] = target: T2, Protein cereblon/Dual specificity tyrosine-phosphorylation-regulated kinase 1A; assay: PROTAC activity at CRBN/DYRK1A in Flp-In-T-REx-293 cells overexpressing GFP-DYRK1A assessed as half life at 1 uM measured upto 6 hrs by fluorescence based phase contrast microscopy analysis; assay type: cell-based
[8] = Cmax in mouse at 10 mg/kg, ip administered as single dose; assay type: ADME, organism-based; conditions: in vivo
[9] = target: T1, Protein cereblon/Dual specificity tyrosine-phosphorylation-regulated kinase 1B (Homo sapiens); assay: PROTAC activity at CRBN/DYRK1B in HEK293 cells overexpressing DYRK1B-p69 assessed as induction of degradation of DYRK1B at 1 uM measured after 24 hrs by Western blot analysis; assay type: cell-based
[10] = target: T1, Protein cereblon/Dual specificity tyrosine-phosphorylation-regulated kinase 1B (Homo sapiens); assay: PROTAC activity at CRBN/DYRK1B in HEK293 cells assessed as induction of degradation of DYRK1B at 100 nM pretreated with lenalidomide followed by compound addition and incubated for 8 hrs; assay type: cell-based
[11] = target: T2, Protein cereblon/Dual specificity tyrosine-phosphorylation-regulated kinase 1A; assay: PROTAC activity at CRBN/DYRK1A in HEK293 cells assessed as induction of degradation of DYRK1A at 100 nM measured for 48 hrs by Western blot analysis; assay type: cell-based
[12] = target: T1, Protein cereblon/Dual specificity tyrosine-phosphorylation-regulated kinase 1B (Homo sapiens); assay: PROTAC activity at CRBN/DYRK1B in Flp-In-T-REx-293 cells overexpressing GFP-DYRK1B assessed as maximal reduction in GFP fluorescence at 1 uM measured upto 6 hrs by fluorescence based phase contrast microscopy analysis relative to control; assay type: cell-based
[13] = target: T2, Protein cereblon/Dual specificity tyrosine-phosphorylation-regulated kinase 1A; assay: PROTAC activity at CRBN/HibiT-tagged DYRK1A in Flp-In-T-REx-293 cells assessed as induction of degradation of DYRK1A at 100 to 300 nM by measured after 24 hrs by NanoBiT luciferase assay; assay type: cell-based; conditions: dose 100-300 nM
[14] = target: T1, Protein cereblon/Dual specificity tyrosine-phosphorylation-regulated kinase 1B (Homo sapiens); assay: PROTAC activity at CRBN/DYRK1B in HEK293 cells assessed as induction of degradation of DYRK1B by measuring maximum efficacy at 1 to 10000 nM incubated for 24 hrs relative to control; assay type: cell-based; conditions: dose 1-10000 nM
[15] = target: T1, Protein cereblon/Dual specificity tyrosine-phosphorylation-regulated kinase 1B (Homo sapiens); assay: PROTAC activity at CRBN/DYRK1B in SH-SY5Y cells assessed as induction of degradation of DYRK1B at 100 nM incubated for 24 hrs; assay type: cell-based
[16] = Bioavailability in mouse at 10 mg/kg, ip administered as single dose; assay type: ADME, organism-based; conditions: in vivo
[17] = AUC last in mouse at 10 mg/kg, ip administered as single dose; assay type: ADME, organism-based; conditions: in vivo
[18] = Plasma protein binding (unknown origin); assay type: ADME, cell-free; conditions: read-out: PPB
[19] = target: T1, Protein cereblon/Dual specificity tyrosine-phosphorylation-regulated kinase 1B (Homo sapiens); assay: PROTAC activity at CRBN/DYRK1B in HEK293 cells assessed as induction of degradation of DYRK1B at 100 nM pretreated with bortezomib followed by compound addition and incubated for 8 hrs; assay type: cell-based
[20] = target: T2, Protein cereblon/Dual specificity tyrosine-phosphorylation-regulated kinase 1A; assay: PROTAC activity at CRBN/DYRK1A in HEK293 cells assessed as induction of degradation of DYRK1A at 100 nM pretreated with lenalidomide followed by compound addition and incubated for 8 hrs; assay type: cell-based
[21] = Metabolic stability in human liver microsomes assessed as half life; assay type: ADME, Microsome
[22] = target: T1, Protein cereblon/Dual specificity tyrosine-phosphorylation-regulated kinase 1B (Homo sapiens); assay: PROTAC activity at CRBN/DYRK1B in HEK293 cells assessed as induction of degradation of DYRK1B at 100 nM pretreated with MLN4924 followed by compound addition and incubated for 8 hrs; assay type: cell-based
[23] = target: T2, Protein cereblon/Dual specificity tyrosine-phosphorylation-regulated kinase 1A; assay: PROTAC activity at CRBN/DYRK1A in HEK293 cells assessed as induction of degradation of DYRK1A by measuring maximum efficacy at 1 to 10000 nM incubated for 24 hrs relative to control; assay type: cell-based; conditions: dose 1-10000 nM
[24] = target: T1, Protein cereblon/Dual specificity tyrosine-phosphorylation-regulated kinase 1B (Homo sapiens); assay: PROTAC activity at CRBN/DYRK1B in HEK293 cells assessed as induction of degradation of DYRK1B at 100 nM pretreated with CB-5083 followed by compound addition and incubated for 8 hrs; assay type: cell-based
[25] = target: T2, Protein cereblon/Dual specificity tyrosine-phosphorylation-regulated kinase 1A; assay: PROTAC activity at CRBN/DYRK1A in human PANC-1 cells assessed as induction of degradation of DYRK1A at 100 nM incubated for 8 hrs; assay type: cell-based
[26] = target: T2, Protein cereblon/Dual specificity tyrosine-phosphorylation-regulated kinase 1A; assay: Competitive binding affinity to CRBN/DYRK1A (unknown origin) assessed as dissociation rate constant Koff; assay type: protein assay
[27] = target: T2, Protein cereblon/Dual specificity tyrosine-phosphorylation-regulated kinase 1A; assay: PROTAC activity at CRBN/DYRK1A in HEK293 cells assessed as induction of degradation of DYRK1A at 100 nM measured within 8 hrs by Western blot analysis; assay type: cell-based
[28] = MRT in mouse at 10 mg/kg, po administered as single dose; assay type: ADME, organism-based; conditions: in vivo
[29] = target: T2, Protein cereblon/Dual specificity tyrosine-phosphorylation-regulated kinase 1A; assay: PROTAC activity at CRBN/DYRK1A in HEK293 cells assessed as induction of degradation of DYRK1A at 100 nM pretreated with MLN4924 followed by compound addition and incubated for 8 hrs; assay type: cell-based
[30] = target: T2, Protein cereblon/Dual specificity tyrosine-phosphorylation-regulated kinase 1A; assay: Competitive binding affinity to CRBN/DYRK1A (unknown origin) assessed as dissociation constant; assay type: protein assay
[31] = AUC infinity in mouse at 10 mg/kg, po administered as single dose; assay type: ADME, organism-based; conditions: in vivo
[32] = target: T2, Protein cereblon/Dual specificity tyrosine-phosphorylation-regulated kinase 1A; assay: PROTAC activity at CRBN/DYRK1A in human HeLa cells assessed as induction of degradation of DYRK1A at 100 nM incubated for 8 hrs; assay type: cell-based
[33] = target: T1, Protein cereblon/Dual specificity tyrosine-phosphorylation-regulated kinase 1B (Homo sapiens); assay: PROTAC activity at CRBN/DYRK1B in HEK293 cells assessed as induction of degradation of DYRK1B at 100 nM measured within 8 hrs by Western blot analysis; assay type: cell-based
[34] = target: T1, Protein cereblon/Dual specificity tyrosine-phosphorylation-regulated kinase 1B (Homo sapiens); assay: PROTAC activity at CRBN/DYRK1B in HEK293 cells assessed as induction of degradation of DYRK1B at 100 nM incubated for 24 hrs; assay type: cell-based
[35] = target: T2, Protein cereblon/Dual specificity tyrosine-phosphorylation-regulated kinase 1A; assay: PROTAC activity at CRBN/DYRK1A in Flp-In-T-REx-293 cells overexpressing GFP-DYRK1A assessed as initial rate of degradation at 1 uM measured upto 6 hrs by fluorescence based phase contrast microscopy analysis; assay type: cell-based

Cc1nc2ccc(-c3ccnc(N)c3)nc2n1-c1ccc(N2CCN(CC#Cc3ccc(N4CCC(C(=O)N5CCC(n6cc(CNc7cccc8c7C(=O)N(C7CCC(=O)NC7=O)C8=O)cn6)CC5)CC4)nc3)CC2)c(F)c1 (stereo not given)
T1/2 [1]: 0.6 h
Activity [2]: inactive
Activity [3]: inactive
Activity [4]: inactive
Activity [5]: inactive
half-life [6]: 2.11 h
T1/2 [7]: 0.95 h
Cmax [8]: 8130 ng/mL
Activity [9]: Active
Activity [10]: inactive
Activity [11]: Active
Emax [12]: 86%
Activity [13]: Active
Emax [14]: 50%
Activity [15]: Active
bioavailability [16]: 109%
AUC(0-t) [17]: 26300 ng·h/mL
fraction unbound [18]: < 0.0062
Activity [19]: inactive
Activity [20]: inactive
half-life [21]: 2.28 h
Activity [22]: inactive
Emax [23]: 90%
Activity [24]: inactive
Activity [25]: Active; Compound Showed Partial Degradation
K [26]: 7.25 10^-4/s
Activity [27]: Active
MRT [28]: 2.51 h
Activity [29]: inactive
Kd [30]: 6.3 nM
AUC(0-inf) [31]: 64 ng·h/mL
Activity [32]: inactive
Activity [33]: Active
Activity [34]: Active
Activity [35]: 0.74 h⁻¹
